Experiments:
[1] = system: human telomeric G-quadruplex DNA, AG3(TTAGGG)3 (DNA, G4) AGGGTTAGGGTTAGGGTTAGGG; experiment: CD melting at 293 nm; settings: 100 mM KCl; 10 mM Tris-HCl, 1 mM Na2EDTA, pH 7.4, 10% ethylene glycol; equimolar 3.93 µM compound and DNA (1:1)
[2] = system: human telomeric G-quadruplex DNA, AG3(TTAGGG)3 (DNA, G4) AGGGTTAGGGTTAGGGTTAGGG; experiment: fluorescence titration, modified Scatchard, non-linear fit (r versus Cf); settings: 100 mM KCl; 10 mM Tris-HCl, 1 mM Na2EDTA, pH 7.4, ≤10% ethylene glycol; 5 µM compound; average over sites
[3] = system: human telomeric G-quadruplex DNA, AG3(TTAGGG)3 (DNA, G4) AGGGTTAGGGTTAGGGTTAGGG; experiment: fluorescence titration, Scatchard, two-line linear fit; settings: 100 mM KCl; 10 mM Tris-HCl, 1 mM Na2EDTA, pH 7.4, ≤10% ethylene glycol; 5 µM compound; site 1 of 2
[4] = system: fluorescein-labelled telomeric G-quadruplex DNA (DNA, G4) AGGGTTAGGGTTAGGGTTAGGG; experiment: fluorescein fluorescence quenching; settings: 100 mM KCl; 10 mM Tris-HCl, 1 mM Na2EDTA, pH 7.4; 2 µM DNA; more than 90% quenching

ΔTm [1] [°C]	K [2] [M⁻¹]	K1 [3] [M⁻¹]	binding [4]	Structure (SMILES)
9.9	2.65e+06	1.3e+08	yes	CN(C)c1cc2c(Nc3ccc4c(cnn4Cc4ccccc4)c3)ncnc2cn1
9.6	700000	1.55e+07	yes	COc1ccc(CCCn2ncc3c2nc(N)n2nc(-c4ccco4)nc32)cc1

Source: publication PMC9728906 (2022)
